Experimental data from US7772255B2, “Method of treating tumors with azaxanthones” (Supratek Pharma, Inc., priority 2005, dated 2010).

Key:
[1] = tested on: metastatic (Stage III-Stage IV) breast cancer; assay: Amlexanox monotherapy in advanced metastatic breast cancer resistant to prior chemotherapy (Example 8); assay type: in vivo, human; conditions: 500 mg orally twice daily; baseline until nine months after administration and follow up
Protocol: In this study 44 women patients with metastatic (Stage III-Stage IV) breast cancer who have relapsed following prior cytotoxic chemotherapy regiments containing anthracyclines and/or taxanes are treated by administering 500 mg amlexanox twice daily with two amlexanox 250 mg tablets prepared in Example 3 taken twice daily orally as outpatients. This treatment is carried out for determining the overall (complete and partial) response rate. In this group, the stable disease rate of patients treated with amlexanox is determined. In addition, in each of the treated patients, the time to disease progression is also determined. The results of this study are compared to untreated patients with metastatic (Stage III-Stage IV) breast cancer who have relapsed following the same prior cytotoxic chemotherapy regiment. […] The patients are evaluated by standard WHO and/or RECIST criteria for response and disease status at six week intervals. […] All of the patients during the evaluation period are evaluated by the measurement of the tumors, survival and determination of any progression of the disease in the patient. Stability is measured during each evaluation to determine if there is any increase in the size and amount of tumors from the proceeding period and if there is no subsequent appearance of any other malignancies in the patient. […]

CSML100 cells = assay: Spontaneous metastasis model in mice (Example 27); assay type: in vivo, mouse
Protocol: Amlexanox solution for injections was prepared according to the Example 4. CSML100 cells (2.0×10^6 cells per animal) were inoculated subcutaneously to female A/J mice (6-7 weeks old). The animals were then divided randomly into 2 groups (n=9): Intact control (saline) and Amlexanox treated (100 mg/kg, daily i.v. injection for 10 consecutive days). The treatment started from the day following the tumor implantation. The measurement of tumor size was performed since day 11. On day 24, the tumors were surgically removed. The lung metastasis development was analyzed 40 days after the tumor resection.
The data in Table show spontaneous lung metastasis formation in this tumor model. The data are expressed as mean±SEM for the number of metastatic sites on the lung surface.

[2] = tested on: S100A4-positive CSML100 cells; assay: Metastasis formation by S100A4-positive CSML100 cells in animal model (Example 6); assay type: in vivo, mouse; conditions: 100 mg/kg i.v. daily for 10 days
Protocol: In both groups the injection volume was 5 ml/kg. The treatments were started from the day following the tumor cell implantation for 10 consecutive days. The animal body weight was recorded as an index of treatment toxicity during the experiment.
Starting from the day 10 after the cell implantation, one animal of the control group was sacrificed every day to monitor the metastasis development. All animals were sacrificed on day 18 for routine metastasis inspection. […] The metastatic colonies on the organ surface were enumerated immediately following the removal of the organ.
The data were expressed as mean±SEM for the number of metastatic sites.

CC(C)c1ccc2oc3nc(N)c(C(=O)O)cc3c(=O)c2c1 [Amlexanox, 2-amino-7-isopropyl-1-azaxanthone-3-carboxylic acid]
percentage of patients with no progression of the disease by WHO and/or RECIST criteria, compared to the non-treated group [1]: greater percentage of the patients in the group of patients treated with the amlexanox show no progression of the disease
Lung metastasis number 40 days after s.c. tumor resection (CSML100 cells; CSML100 s.c. in A/J mice, 100 mg/kg i.v. daily for 10 days, tumors removed day 24, mean±SEM, one animal (26 metastases) excluded): 1.00 ± 0.55
Subcutaneous tumor size on day 14 (CSML100 cells; CSML100 s.c. in A/J mice, 100 mg/kg i.v. daily injection for 10 days): 0.05 ± 0.02 g
Trial/control × 100% (CSML100 cells; lung metastasis number 40 days after s.c. tumor resection, 100 mg/kg i.v. daily for 10 days): 96.3%
Average of lung metastasis number per animal ([2]; CSML100 cells i.v. in female A/J mice, day 18, mean±SEM): 18.8 ± 2.3
Trial/control × 100% ([2]; lung metastasis number, day 18): 48.5%
inhibition on metastases formation ([2]; mice inoculated CSML100 cells): significant inhibition on metastases formation
body weight loss ([2]; non-significant, A/J mice): less than 10%
